Our source for the IC50 values is patent publication US10377770B2 (Novartis AG, priority 2015, dated 2019).

Each structure is given as a SMILES string. pIC50: −log10 of the molar value.

The assay has as its target C-Raf FL (full length CRAF with Y340E and Y341E activating mutations, co-expressed with h14-3-3 zeta) (Homo sapiens (Human), UniProt P04049, Y340E/Y341E). The experiment in a line: In vitro Raf activity determination, AlphaScreen p-MEK readout, c-Raf (C-Raf FL). Type of assay: biochemical. The note with it: c-Raf approximately 4 nM, ATP 1 μM, pre-incubation 60 minutes, reaction 1 hour. An outline of the steps:
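Full-length C-Raf (~4 nM) pre-incubated 60 min at room temperature with compound and kinase-dead biotinylated MEK1 (~10 nM) in Tris pH 7.5, 15 mM MgCl2, BSA, DTT. Reaction started with 1 μM ATP and run 1 h at room temperature. Phospho-MEK detected by AlphaScreen with anti-p-MEK antibody.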
On the technique in general: Alpha assays give light when donor and acceptor beads are brought close together.

C-Raf FL (full length CRAF with Y340E and Y341E activating mutations, co-expressed with h14-3-3 zeta), sequence (P04049 whole entry Y340E/Y341E): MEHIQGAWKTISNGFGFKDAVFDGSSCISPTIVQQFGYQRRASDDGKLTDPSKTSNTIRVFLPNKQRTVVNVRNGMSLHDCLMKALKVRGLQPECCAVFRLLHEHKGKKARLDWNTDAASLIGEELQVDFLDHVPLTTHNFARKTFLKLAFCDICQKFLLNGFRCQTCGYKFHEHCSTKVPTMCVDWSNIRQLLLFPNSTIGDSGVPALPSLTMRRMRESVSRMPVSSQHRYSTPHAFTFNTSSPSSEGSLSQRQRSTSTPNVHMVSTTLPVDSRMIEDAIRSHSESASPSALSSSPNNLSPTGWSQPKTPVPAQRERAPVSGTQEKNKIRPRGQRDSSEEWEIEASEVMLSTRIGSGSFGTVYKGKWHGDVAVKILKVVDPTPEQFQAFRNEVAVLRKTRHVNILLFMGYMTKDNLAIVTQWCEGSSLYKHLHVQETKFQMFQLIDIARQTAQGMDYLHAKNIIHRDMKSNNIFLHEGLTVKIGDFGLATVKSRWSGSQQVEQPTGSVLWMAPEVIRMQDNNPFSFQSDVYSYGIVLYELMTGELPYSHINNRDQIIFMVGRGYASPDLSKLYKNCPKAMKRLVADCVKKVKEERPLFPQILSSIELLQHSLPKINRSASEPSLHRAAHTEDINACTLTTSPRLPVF
C-Raf FL (full length CRAF with Y340E and Y341E activating mutations, co-expressed with h14-3-3 zeta), sequence (P63104 whole entry partner): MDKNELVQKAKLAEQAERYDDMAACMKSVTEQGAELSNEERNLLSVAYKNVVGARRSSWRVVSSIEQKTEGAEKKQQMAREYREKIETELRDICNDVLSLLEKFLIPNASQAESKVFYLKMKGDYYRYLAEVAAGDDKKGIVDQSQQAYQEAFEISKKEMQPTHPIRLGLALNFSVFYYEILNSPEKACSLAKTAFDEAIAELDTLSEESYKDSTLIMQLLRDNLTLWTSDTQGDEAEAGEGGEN

As a reminder, the pIC50 is −log10 of the IC50, conventionally taken in molar units. Read a low pIC50 as a large IC50. `Cc1ncc(NC(=O)c2cccc(C(F)(F)F)c2)cc1-c1cc(F)c2c(c1)N1CCOC[C@H]1[C@@](F)(CO)C2` [Example 431, N-(5-((4aS,5R)-5,7-difluoro-5-(hydroxymethyl)-1,2,4,4a,5,6-hexahydro-[1,4]oxazino[4,3-a]quinolin-9-yl)-6-methylpyridin-3-yl)-3-(trifluoromethyl)benzamide] gave a pIC50 of 8.36.

Compound `Cc1ccc(NC(=O)c2cc(N)nc(C(F)(F)F)c2)cc1-c1ccc2c(c1)N1CCOC[C@H]1[C@](F)(CO)C2` [Example 390, 2-amino-N-(3-((4aS,5S)-5-fluoro-5-(hydroxymethyl)-1,2,4,4a,5,6-hexahydro-[1,4]oxazino[4,3-a]quinolin-9-yl)-4-methylphenyl)-6-(trifluoromethyl)isonicotinamide] gave a pIC50 of 8.77.

On to `Cc1ccc(NC(=O)c2ccnc(C(F)(F)F)c2)cc1-c1cc2c(cc1F)C[C@](F)(CO)[C@H]1COCCN21` [Example 480, N-(3-((4aR,5R)-5,8-difluoro-5-(hydroxymethyl)-1,2,4,4a,5,6-hexahydro-[1,4]oxazino[4,3-a]quinolin-9-yl)-4-methylphenyl)-2-(trifluoromethyl) isonicotinamide], for which the pIC50 is 9.70.

Turning to `Cc1ccc(NC(=O)c2ccnc(C(F)(F)F)c2)cc1-c1cnc2c(c1)N1CCOC[C@H]1C(C)(C)[C@H]2N` [Example 527], the pIC50 was 9.05.

In turn, `Cc1ccc(NC(=O)c2ccnc(C(C)(F)F)c2)cc1-c1cnc2c(c1)N1CCOC[C@H]1CC(=O)N2CC(C)(C)O` [Example 289, (R)-2-(1,1-difluoroethyl)-N-(3-(7-(2-hydroxy-2-methylpropyl)-6-oxo-2,4,4a,5,6,7-hexahydro-1H-[1,4]oxazino[4,3-d]pyrido[2,3-b][1,4]diazepin-10-yl)-4-methylphenyl) isonicotinamide] showed a pIC50 of 9.05.

As for `Cc1ccc(NC(=O)c2ccnc(C(C)(F)F)c2)cc1-c1cc2n(c(=O)c1)CC[C@H]1COCCN21` [Example 411, (S)-2-(1,1-difluoroethyl)-N-(4-methyl-3-(8-oxo-1,2,4,4a,5,6-hexahydro-8H-pyrido[2′,1′:2,3]pyrimido[6,1-c][1,4]oxazin-10-yl)phenyl)isonicotinamide], the pIC50 is 9.70.

Compound `Cc1ccc(NC(=O)c2ccnc(C(C)(F)F)c2)cc1-c1ccc2c(c1)N1CCOCC1CC2(C)O` (racemic) [Example 23] showed a pIC50 of 10.34.

Regarding `Cc1ccc(NC(=O)c2cncc(C(F)(F)F)c2)cc1-c1cnc2c(c1)N1CCOC[C@H]1CC(=O)N2CCO` [Example 329, (R)-N-(3-(7-(2-hydroxyethyl)-6-oxo-2,4,4a,5,6,7-hexahydro-1H-[1,4]oxazino[4,3-d]pyrido[2,3-b][1,4]diazepin-10-yl)-4-methylphenyl)-5-(trifluoromethyl) nicotinamide], the pIC50 is 9.70.

As to `Cc1ccc(NC(=O)c2ccnc(C(C)(C)F)c2)cc1-c1cnc2c(c1)N1CCOC[C@H]1C[C@H]2OCCO` [Example 511, 2-(2-fluoropropan-2-yl)-N-(3-((4aR,6R)-6-(2-hydroxyethoxy)-1,2,4,4a,5,6-hexahydro-[1,4]oxazino[4,3-a][1,5]naphthyridin-9-yl)-4-methylphenyl)iso-nicotinamide], the pIC50 was 9.70.

Turning to `Cc1ccc(NC(=O)c2cncc(C(F)(F)F)c2)cc1-c1cnc2c(c1)N1CCOC[C@H]1C[C@H]2O` [Example 145, N-(3-((4aR,6R)-6-hydroxy-1,2,4,4a,5,6-hexahydro-[1,4]oxazino[4,3-a][1,5]naphthyridin-9-yl)-4-methylphenyl)-5-(trifluoromethyl)nicotinamide], the negative-log IC50 (pIC50) was 10.77.

`Cc1ccc(NC(=O)c2ccnc(C(C)(F)F)c2)cc1-c1ccc2c(c1)N1CCOC[C@@H]1[C@@](F)(CO)C2` [Example 81, 2-(1,1-difluoroethyl)-N-(3-((4aR,5R)-5-fluoro-5-(hydroxymethyl)-1,2,4,4a,5,6-hexahydro-[1,4]oxazino[4,3-a]quinolin-9-yl)-4-methylphenyl)isonicotinamide] showed a pIC50 of 10.09.

On to `Cc1ncc(NC(=O)c2ccnc(C(F)(F)F)c2)cc1-c1ccc2c(c1)N1CCOC[C@H]1[C@](F)(CF)C2` [Example 471, N-(5-((4aS,5S)-5-fluoro-5-(fluoromethyl)-1,2,4,4a,5,6-hexahydro-[1,4]oxazino[4,3-a]quinolin-9-yl)-6-methylpyridin-3-yl)-2-(trifluoromethyl)iso-nictonamide], for which the pIC50 is 8.92.

Compound `Cc1ccc(NC(=O)c2ccnc(C(F)(F)F)c2)cc1-c1ccc2c(c1)N1CCOC[C@H]1[C@](CO)(CF)C2` [Example 408, N-(3-((4aR,5R)-5-(fluoromethyl)-5-(hydroxymethyl)-1,2,4,4a,5,6-hexahydro-[1,4]oxazino[4,3-a]quinolin-9-yl)-4-methylphenyl)-2-(trifluoromethyl)isonicotinamide] gave a pIC50 of 9.15.

In the case of `Cc1ccc(NC(=O)c2ccnc(C(F)(F)F)c2F)cc1-c1ccc2c(c1)N1CCOC[C@H]1[C@](F)(CO)C2` [Example 380, 3-fluoro-N-(3-((4aS,5S)-5-fluoro-5-(hydroxymethyl)-1,2,4,4a,5,6-hexahydro-[1,4)oxazino[4,3-a]quinolin-9-yl)-4-methylphenyl)-2-(trifluoromethyl)isonicotinamide], the pIC50 was 9.40.

For the compound `CCN1Cc2nncn2-c2cc(-c3cc(NC(=O)c4ccnc(C(F)(F)F)c4)ccc3C)cnc2C1=O` [Example 241, N-(3-(5-ethyl-6-oxo-5,6-dihydro-4H-pyrido[2,3-f][1,2,4]-triazolo[4,3-a][1,4]diazepin-9-yl)-4-methylphenyl)-2-(trifluoromethyl) isonicotinamide], the pIC50 was 8.02.

As for `CCN1C(=O)C2[C@H]3COC[C@H]3[C@@H]2c2cc(-c3cc(NC(=O)c4ccnc(C(F)(F)F)c4)ccc3C)cnc21` (stereo in doubt) [Example 268, N-(3-((6aS, 6bS, 9aS, 9bS)-5-ethyl-6-oxo-5,6,6a,6b,7,9,9a,9b-octahydrofuro[3′,4′: 3,4]cyclobuta[1,2-c][1,8]naphthyridin-2-yl)-4-methylphenyl)-2-(trifluoromethyl) isonicotinamide], the pIC50 was 9.52.

As for `CO[C@@H]1C[C@@H]2COCCN2c2cc(-c3cc(NC(=O)c4ccnc(C(C)(F)F)c4)cnc3C)ccc21` (racemic) [Example 31, (rac)-(trans)-2-(1,1-difluoroethyl)-N-(5-(6-methoxy-1,2,4,4a,5,6-hexahydro-[1,4]oxazino[4,3-a]quinolin-9-yl)-6-methylpyridin-3-yl)isonicotinamide], the pIC50 was 10.48.

The compound `CCN1C(=O)[C@H]2COCC[C@@H]2c2cc(-c3cc(NC(=O)c4ccnc(C(C)(C)F)c4)cnc3C)cnc21` [Example 310, N-(5-((4aR, 10bS)-6-ethyl-5-oxo-1,4,4a,5,6,10b-hexahydro-2H-pyrano[3,4-c][1,8]naphthyridin-9-yl)-6-methylpyridin-3-yl)-2-(2-fluoropropan-2-yl)isonicotinamide] had a pIC50 of 10.00.

With `Cc1ccc(NC(=O)c2ccnc(C(C)(F)F)c2)cc1-c1ccc2c(c1)N1CCOC[C@H]1[C@@](C)(C#N)C2` [Example 373, N-(3-((4aR,5S)-5-cyano-5-methyl-1,2,4,4a,5,6-hexahydro-[1,4]oxazino[4,3-a]quinolin-9-yl)-4-methylphenyl)-2-(1,1-difluoroethyl)isonicotinamide], the pIC50 was 9.40.

The compound `Cc1ccc(NC(=O)c2ccnc(C(C)(C)F)c2)cc1-c1cnc2c(c1)N1CCOC[C@H]1C[C@@H]2O` (racemic) [Example 141, rac-cis-2-(2-fluoropropan-2-yl)-N-(3-(6-hydroxy-1,2,4,4a,5,6-hexahydro-[1,4]oxazino[4,3-a][1,5]naphthyridin-9-yl)-4-methylphenyl)isonicotinamide] had a pIC50 of 11.38.

`Cc1ccc(NC(=O)c2ccnc(C(C)(F)F)c2)cc1-c1cnc2c(c1)[C@@]1(C)CCOCC[C@@H]1C(=O)N2CCO` (relative stereo) [Example 352, 2-(1,1-difluoroethyl)-N-((5a,11b-trans)-3-(7-(2-hydroxyethyl)-11b-methyl-6-oxo-1,2,4,5,5a,6,7,11b-octahydrooxepino[4,5-c][1,8]naphthyridin-10-yl)-4-methylphenyl)isonicotinamide] had a pIC50 of 10.00.

With `CCNC(=O)C1Cc2ccc(-c3cc(NC(=O)c4ccnc(C(F)(F)F)c4)ccc3C)cc2N2CCOCC12` (racemic) [Example 73, (rac)-N-ethyl-9-(2-methyl-5-(2-(trifluoromethyl)isonicotinamido)phenyl)-1,2,4,4a,5,6-hexahydro-[1,4]oxazino[4,3-a]quinoline-5-carboxamide], the pIC50 is 9.70.

For `Cc1ccc(NC(=O)c2ccnc(C(C)(F)F)c2)cc1-c1ccc2c(c1)N1CCOC[C@@H]1C[C@H]2O` (single isomer, unassigned) [Example 20], the pIC50 is 10.60.

In the case of `Cc1ccc(NC(=O)c2ccnc(C(C)(F)F)c2)cc1-c1ccc2c(c1)N1CCOCC1C(CO)C2` (racemic) [Example 60, (rac)-2-(1,1-difluoroethyl)-N-(3-(5-(hydroxymethyl)-1,2,4,4a,5,6-hexahydro-[1,4]oxazino[4,3-a]quinolin-9-yl)-4-methylphenyl)isonicotinamide], the pIC50 was 10.72.

Compound `Cc1ccc(NC(=O)c2ccnc(C(C)(F)F)c2)cc1-c1cnc2c(c1)N1CCOC[C@H]1[C@@](C#N)(CF)C2` [Example 515, N-(3-((4aR,5S)-5-cyano-5-(fluoromethyl)-1,2,4,4a,5,6-hexahydro-[1,4]oxazino[4,3-a][1,5]naphthyridin-9-yl)-4-methylphenyl)-2-(1,1-difluoroethyl)iso-nicotinamide] gave a pIC50 of 10.00.

On to `CCN1C(=O)[C@@H]2COCC[C@H]2c2cc(-c3cc(NC(=O)c4ccnc(C(F)(F)F)c4)cnc3C)cnc21` [Example 252, N-(5-((4aS, 10bR)-6-ethyl-5-oxo-2,4,4a,5,6,10b-hexahydro-1H-pyrano[3,4-c][1,8]naphthyridin-9-yl)-6-methylpyridin-3-yl)-2-(trifluoromethyl) isonicotinamide], for which the pIC50 is 10.00.
